Results from patent publication US20250003952A1, “SENOLYTIC DRUG SCREENING METHOD AND SENOLYTIC DRUG” (KYOTO UNIVERSITY, priority 2021, published 2025).

Assays:
PGAM-Chk1 binding [1] = target: T1, PGAM-Chk1 binding (Homo sapiens, UniProt O14757+P18669); assay: Nano-Bit PGAM-Chk1 binding in cancer cell line H1299; format: cell-based; conditions: H1299 cells; 40 μM for 12, 24, and 48 hours
T1 construct: expressed in transfected cells
Excerpt: PGAM and Chk1 kinase genes tagged with Nano-Bit tags were introduced into the cancer cell line H1299 to prepare a cell line capable of stable expression. […] The treated cells were used to measure intracellular luciferase luminescence signals by Nano-Bit for each.

senescent cells = assay: Transcriptome / microarray / mRNA analysis of nutlin 3b-treated senescent cells; format: cell-based, human
Method: (§1) The latter information consists of 12,655 ChIP datasets from 903 antigens (transcription factors and epigenetic regulators).
A microarray dataset on nutlin 3b-treated senescent cells was analyzed for 202 genes (GO:0042981) classified as regulation of the apoptotic process.
In the Fox family, FoxO protein is deeply involved in the senescence process.

p53 = p53 activation (Western blot of p53 and p21) in young IMR90 cells; format: cell-based, human; conditions: 20 μM for 48 hours
Excerpt: After the treatment, proteins were extracted from the cells to carry out Western blotted.

IMR90 cells = assay: Senolysis / cell death of young and Ras-induced senescent IMR90 cells; format: cell-based, human
Excerpt: Ras gene with oncogenic mutation was introduced into young cells (within 1 month of continuous culture) of IMR90 cells by retroviral infection to acquire senescent cells. […] The control received only DMSO treatment. Representative images of cells observed under a microscope are shown (FIG. 11).
An oncogenic mutated Ras gene was introduced into young cells (within 1 month of continuous culture) of IMR90 cells by retroviral infection to acquire stress-induced senescent cells. The young cells and the senescent cells were both treated with different concentrations of the RSK kinase inhibitor BI-D1870 for 96 hours to evaluate cell death.
An oncogenic mutated Ras gene was introduced into young cells (within 1 month of continuous culture) of IMR90 cells by retroviral infection to acquire stress-induced senescent cells. The young cells and the senescent cells of IMR90 were both transfected with an RSK1 siRNA (two types of siRNA #1 (SEQ ID NO: 7) or #2 (SEQ ID NO: 8) having different target sequences) or a control to knock down RSK1. Representative images of cells observed under a microscope are shown (upper diagram in FIG. 20).
An oncogenic Ras was introduced into young cells (within 1 month of continuous culture) of IMR90 cells to induce senescent cells (OIS). The young cells and the senescent cells of IMR90 were transfected with two HIF-2α-specific siRNAs (SEQ ID NO: 9 and SEQ ID NO: 10) having different target sequences to knock down HIF-2α.
An oncogenic Ras was introduced into young cells (within 1 month of continuous culture) of IMR90 cells to induce senescent cells (OIS). The young cells and the senescent cells of IMR90 were transfected with a BIM-specific siRNA to knock down BIM.
An oncogenic Ras was introduced into young cells (within 1 month of continuous culture) of IMR90 cells to induce senescent cells (OIS). In the young cells and the senescent cells of IMR90, HIF-2α alone or both HIF-2α and BIM were knocked down by using their respective specific siRNAs (SEQ ID NO: 9, SEQ ID NO: 10), and cell death was confirmed (FIG. 28).
as §1

[2] = test system: Twenty-month-old C57BL/6 mice; assay: Nutlin 3b administration to aged mice for 3 months; format: in vivo, mouse
Excerpt: The vehicle group was given a solvent alone on the same schedule.

aged C57BL/6 mice = assay: Nutlin 3b administration to aged mice for 2 months, RT-PCR of senescence and inflammation markers; format: in vivo, mouse; conditions: 90 weeks, 11.63 mg/kg intraperitoneal once a week for 2 months
Method: Specifically, 16 aged C57BL/6 mice at 90 weeks of age were provided. The mice were divided into two groups (control: 8 mice, agent group: 8 mice), and intraperitoneal injection administration once a week was continued for 2 months. […] One week after the end of the last administration, all mice were dissected, and RNA was extracted from each organ. Senescence markers and inflammation markers were evaluated by RT-PCR.

PGAM-Chk1 binding [3] = target: T1, PGAM-Chk1 binding; assay: Nano-Bit PGAM-Chk1 binding in young and etoposide-induced senescent IMR90 cells; format: cell-based; conditions: etoposide-induced senescent IMR90 cells; 20 μM or 40 μM for 48 hours
Method: In addition, PGAM and Chk1 kinase genes tagged with Nano-Bit tags were introduced into IMR90 cells to prepare a cell line capable of stable expression Young cells (within 1 month of continuous culture) of the IMR90 cells were treated with 100 uM etoposide for 48 hours to induce cellular senescence.

caspase-3 = assay: Apoptosis by Western blotting of fragmented caspase-3 in young and senescent IMR90 cells; format: cell-based, human; conditions: different concentrations for 72 hours
Excerpt: Ras gene with oncogenic mutation was introduced into young cells (within 1 month of continuous culture) of IMR90 cells by retroviral infection to acquire stress senescent cells.

[4] = 11.62 mg/kg intraperitoneal once a week for 3 months

T1 sequence (P18669 whole entry): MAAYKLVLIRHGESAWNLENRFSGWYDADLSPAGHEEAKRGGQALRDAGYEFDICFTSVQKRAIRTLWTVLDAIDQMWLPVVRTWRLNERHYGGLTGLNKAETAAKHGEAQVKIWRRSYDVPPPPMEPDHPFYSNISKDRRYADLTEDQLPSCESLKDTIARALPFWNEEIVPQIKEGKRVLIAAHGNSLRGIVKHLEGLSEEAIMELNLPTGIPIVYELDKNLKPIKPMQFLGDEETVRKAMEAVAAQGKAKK
T1 sequence (O14757 whole entry): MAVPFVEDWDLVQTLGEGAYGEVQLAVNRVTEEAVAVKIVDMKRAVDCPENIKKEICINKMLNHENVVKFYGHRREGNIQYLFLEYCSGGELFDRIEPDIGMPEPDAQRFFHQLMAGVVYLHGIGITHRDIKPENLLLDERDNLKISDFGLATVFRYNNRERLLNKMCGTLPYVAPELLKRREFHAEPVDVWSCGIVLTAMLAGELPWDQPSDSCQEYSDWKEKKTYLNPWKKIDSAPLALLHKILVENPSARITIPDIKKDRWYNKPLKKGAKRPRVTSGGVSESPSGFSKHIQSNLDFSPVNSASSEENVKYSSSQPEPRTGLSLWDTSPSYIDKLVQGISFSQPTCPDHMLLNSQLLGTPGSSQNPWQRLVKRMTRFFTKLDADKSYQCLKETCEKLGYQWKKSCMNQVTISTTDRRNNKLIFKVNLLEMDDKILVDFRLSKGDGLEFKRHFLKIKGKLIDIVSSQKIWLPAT

For `COc1ccc(C2=N[C@H](c3ccc(Cl)cc3)[C@H](c3ccc(Cl)cc3)N2C(=O)N2CCNC(=O)C2)c(OC(C)C)c1` [nutlin 3b], the “luciferase luminescence signal by Nano-Bit (PGAM-Chk1 binding)” value (PGAM-Chk1 binding [1]) was “treatment time-dependent decrease”, the “expression of FOXM1, FOXF1, FOXC1, FOXL1, FOXL2, FOXD1, FOXB2, FOXI2, and FOXN1” value (senescent cells; nutlin 3b treatment) was “downregulated” and the “expression of FOXO1, FOXP1, FOXH1, FOXF2, FOXO4, FOXO3, FOXJ3, FOXQ1, FOXK2, FOXN3, FOXO6, FOXK1, FOXP4, FOXN2, and FOXJ2” value (senescent cells; nutlin 3b treatment) was “upregulated”. The “expression of FOXO1 and FOXP1” value (senescent cells; nutlin 3b treatment) was “remarkably upregulated”, the Survivin protein (senescent cells; nutlin 3b-treated senescent cells) was “downregulated” and the “downregulation of Survivin/BIRC5” value (senescent cells; nutlin 3b-treated senescent cells, microarray) was “about 30 fold”. For the same molecule, the “FoxM1 mRNA among FOX transcription family members” value (senescent cells; senescent cells) was “most dramatically downregulated”, the “mRNAs for FoxM1 transcription targets (CCNB1, B2, D1, PLK1, ASPM, CEP55)” value (senescent cells; senescent cells) was “significantly affected” and the “protein level of p21” value (p53) was “almost unchanged”. For the same molecule, the “protein level of p53” value (p53) was “almost unchanged”, the “senolysis by nutlin 3b treatment in BIM knockdown cells” value (IMR90 cells; IMR90 cells transfected with BIM-specific siRNA, nutlin 3b 96 hours) was “rescued by BIM knockdown” and the “cell death observed under a microscope” value (IMR90 cells; young and Ras-induced senescent IMR90 cells, 40 μM for 72 hours) was “young cells are normal, but senescent cells selectively die”. The “senolytic effect (cell death)” value (IMR90 cells; young and senescent IMR90 cells, 96 hours, 20 or 40 μM) was “remarkable senolytic effect”, the “lactate level (plasma)” value [2, 4] was “improved” and the “liver function marker plasma albumin level” value [2, 4] was “improved”. The “muscle strength (wire hang test)” value [2, 4] was “improved”, the “renal function marker plasma BUN” value [2, 4] was “improved” and the “renal function marker plasma creatinine” value [2, 4] was “improved”. The “degree of cellular senescence in adipose tissue (SA ß-Gal staining)” value ([2]; 11.62 mg/kg once a week for 3 months) was “improved”, the “p21-positive cells in the liver” value ([2]; histochemical analysis, 11.62 mg/kg once a week for 3 months) was “significantly decreased” and the “SASP factors (IL6, CXCL1, TNFα, and CCL5)” value ([2]; liver mRNA, 11.62 mg/kg once a week for 3 months) was “reductions”. The “F4/F80-positive cells (macrophage infiltration)” value ([2]; liver, 11.62 mg/kg once a week for 3 months) was “reduced”, the “inflammatory markers (RT-PCR, organs)” value (aged C57BL/6 mice) was “reduced” and the “senescence markers (RT-PCR, organs)” value (aged C57BL/6 mice) was “reduced”. For the same molecule, the “potentiation of PGAM-Chk1 binding (intracellular luminescence signals of Nano-Bit)” value (PGAM-Chk1 binding [3]) was “suppressed by the nutlin 3b treatment in a dose-dependent manner”, the caspase-3 fragmentation (caspase-3; Ras-induced senescent IMR90 cells) was “dose-dependent fragmentation of caspase 3” and the caspase-3 fragmentation (caspase-3; young IMR90 cells) was “did not cause caspase-3 fragmentation”.
